Source: EP1016409B1, “FREEZE DRIED COMPOSITION COMPRISING GLYCOSPHINGOLIPIDS” (KIRIN BEER KABUSHIKI KAISHA, priority 1997, dated 1998)

Columns and labels:
Assay type in all cases: physicochemical
[1] = Cooling condition after dissolution with heating 2: turbidity after storage; conditions: lyophilized composition (Polysorbate 20 0.5%, histidine 0.75%, sucrose 5.6%) stored at 50°C for 1 week, reconstituted
Procedure: First, Polysorbate 20 was dissolved in distilled water in a concentration of 0.5%, histidine in a concentration of 0.75%, and sucrose in a concentration of 5.6%. Next, 800 mg of the active component (KRN7000) was weighed and stirred in 4 liters of the solvent under heating at 73°C for 30 minutes in order to form a solution. After dissolution, the mixture was divided into about 500 ml portions, cooled rapidly - gradually with stirring under the following six rates:
After cooling, the mixtures were filtered through a 0.22 µm filter, and transparent colorless glass vials having a volume of 5 ml were charged with a 1 ml portion of each of a variety of solutions thus obtained and subjected to lyophilization. Lyophilization was carried out under the condition of preliminary freezing at -50°C for 5 hours and drying at -15°C for 48 hours, 10°C for 12 hours, and finally at 25°C for 7 hours to give the lyophilized product. The degree of vacuum was set at 0.1 Torr or less during drying step.
After lyophilization, the lyophilized composition thus obtained was stored at 50°C for 1 week, and the turbidity of the reconstituted solution was measured. In this connection, the turbidity of the lyophilized composition was used which was reconstituted in 1 ml of distilled water for injection and left standing for 30 minutes, and turbidity was measured when the foams generated on reconstitution disappeared.
The turbidity was measured by the following method: various dilutions including 50-fold dilution (kaolin 2 µg/ml, turbidity 2.00), 100-fold dilution (kaolin 1 µg/ml, turbidity 1.00), and 200-fold dilution (kaolin 0.5 µg/ml, turbidity 0.50) were prepared by diluting the turbidity standard (kaolin, […]) with distilled water. A calibration curve was made by measuring the absorbance at a wave length of 660 nm with a control of distilled water and the various dilutions in a spectrophotometer (HITACHI U-3210). Next, the absorbance of the solutions was measured under the same condition as above to calculate the turbidity of the solutions.

[2] = Additives for improving re-solubility during storage, mannitol as excipient; conditions: lyophilized, KRN7000 200 µg/ml, Polysorbate 20 0.5%, 25°C
Procedure: (§1) First, Polysorbate 20 was dissolved in distilled water in a concentration of 0.5%, and mannitol and a variety of additives such concentrations as listed in Table 8. Next, 20 mg of the active component (KRN7000) was weighed and stirred in 100 ml of the solvents in a heated bath to 80°C for 20 minutes in order to form a solution. After cooling with running water, the mixture was filtered through a 0.22 µm filter, and transparent colorless glass vials having a volume of 5 ml were charged with a 1 ml portion of each of a variety of solutions thus obtained and subjected to lyophilization. Lyophilization was carried out under the condition of preliminary freezing at -40°C for 2 hours and drying at -20°C for 24 hours, 10°C for 12 hours, and finally at 25°C for 5 hours to give the lyophilized product. The degree of vacuum was set at 0.1 Torr or less during drying step.
(§2) After the lyophilization step, the lyophilized composition was stored at 25°C. After storage for 1 month, the lyophilized composition was reconstituted in 1 ml of distilled water for injection, left standing for 30 minutes, and solubility was judged when the foams generated on reconstitution disappeared. The samples judged in solution were further stored, and judged again of their solubility after 4 months.
(§3) The solubility was judged by cleaning the outside of the vial and placing it beneath the white light source in a darkroom for observation with naked eye at the position of a luminous intensity of about 5,000 lux. When the sample was clear with no precipitates, it was judged that the active component was dissolved.

[3] = Excipient appropriate to lyophilization 2: re-solubility after storage; conditions: lyophilized, KRN7000 200 µg/ml, Polysorbate 20 0.5%, 25°C
Procedure: The lyophilized preparations having mannitol and sucrose added thereto were observed on their variation with the passage of time.
as §1, with “the saccharides were dissolved in” for “mannitol and a variety of additives”, “7.” for “8.”
as §2, §3

CCCCCCCCCCCCCCCCCCCCCCCCCC(=O)N[C@@H](CO[C@H]1O[C@H](CO)[C@H](O)[C@H](O)[C@H]1O)[C@H](O)[C@H](O)CCCCCCCCCCCCCC [KRN7000, (2S,3S,4R)-1-(α-D-galactopyranosyloxy)-2-hexacosanoylamino-3,4-octadecanediol]
Turbidity ([1]; cooling ① 73°C → 30°C, 4 minutes (10.75°C/min)): 2.08 | Turbidity ([1]; cooling ② 73°C → 30°C, 6 minutes (7.17°C/min)): 2.67 | Turbidity ([1]; cooling ③ 73°C → 30°C, 7 minutes (6.14°C/min)): 3.31 | Turbidity ([1]; cooling ④ 73°C → 30°C, 10 minutes (4.30°C/min)): 3.80 | Turbidity ([1]; cooling ⑤ 73°C → 30°C, 23 minutes (1.87°C/min)): 6.44 | Turbidity ([1]; cooling ⑥ 73°C → 30°C, 120 minutes (0.36°C/min)): 18.84 | Re-solubility after storage (by naked eye) ([2]; Mannitol 10%, Sodium deoxycholate, 1%, 1 month): - (- dissolved) | Re-solubility after storage (by naked eye) ([2]; Mannitol 10%, Sodium deoxycholate, 1%, 4 months): - (- dissolved) | Re-solubility after storage (by naked eye) ([2]; Mannitol 10%, no additive, 1 month): - (- dissolved) | Re-solubility after storage (by naked eye) ([2]; Mannitol 10%, no additive, 4 months): + (+ not dissolved (or deposited)) | Re-solubility after storage (by naked eye) ([2]; Mannitol 15%, Glycerol, 0.1%, 1 month): + (+ not dissolved (or deposited)) | Re-solubility after storage (by naked eye) ([2]; Mannitol 15%, Glycerol, 0.1%, 4 months): + (+ not dissolved (or deposited)) | Re-solubility after storage (by naked eye) ([2]; Mannitol 15%, Glycerol, 1%, 1 month): + (+ not dissolved (or deposited)) | Re-solubility after storage (by naked eye) ([2]; Mannitol 15%, Glycerol, 1%, 4 months): + (+ not dissolved (or deposited)) | Re-solubility after storage (by naked eye) ([2]; Mannitol 15%, PEG400, 1%, 1 month): + (+ not dissolved (or deposited)) | Re-solubility after storage (by naked eye) ([2]; Mannitol 15%, PEG400, 1%, 4 months): + (+ not dissolved (or deposited)) | Re-solubility after storage (by naked eye) ([2]; Mannitol 15%, Sodium deoxycholate, 1%, 1 month): + (+ not dissolved (or deposited)) | Re-solubility after storage (by naked eye) ([2]; Mannitol 15%, Sodium deoxycholate, 1%, 4 months): + (+ not dissolved (or deposited)) | Re-solubility after storage (by naked eye) ([2]; Mannitol 15%, no additive, 1 month): + (+ not dissolved (or deposited)) | Re-solubility after storage (by naked eye) ([2]; Mannitol 15%, no additive, 4 months): + (+ not dissolved (or deposited)) | Re-solubility after storage (by naked eye) ([3]; Mannitol 10%, 1 month): - (- dissolved) | Re-solubility after storage (by naked eye) ([3]; Mannitol 10%, 4 months): + (+ not dissolved (or deposited)) | Re-solubility after storage (by naked eye) ([3]; Sucrose 9.6%, 1 month): - (- dissolved) | Re-solubility after storage (by naked eye) ([3]; Sucrose 9.6%, 4 months): + (+ not dissolved (or deposited))
